# Measured values: patent US10028966B2 (Avalyn Pharma Inc., priority 2014, dated 2018)
# Assays:
# Assay type in all cases: physicochemical
# [1] = Stability assessment of pirfenidone formulations at 25°C/60% RH and 40°C/75% RH; settings: time zero
# [2] = Process temperature development study (60°C dissolution, cooling to 25°C)
# Experimental: […]. […] The final volume of each formulation was 5 mL. […] Each sample was mixed thoroughly and agitated overnight at 60° C. Rapid cooling and step-wise cooling from 60° C. to 25° C. was performed. HPLC analysis was performed on samples taken after overnight incubation and after cooling to 25° C. Prior to HPLC analysis, formulations were filtered via syringe through a 0.45 μm PVDF filter.
# [3] = Co-solvent and surfactant effects on pirfenidone saturation solubility; settings: thermodynamic from solid;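 note: samples equilibrated by overnight agitation at ambient temperature, with solubility taken from the supernatant after undissolved solid was removed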
# Experimental: Each sample was agitated at ambient temperature overnight. The samples were visually inspected and appearance recorded. Samples were centrifuged to sediment any un-dissolved material and the supernatant withdrawn via syringe through a 0.22 μm PVDF filter. […] The remaining filtered sample was split into three equal volumes in glass vials and placed at 25° C./60 RH, 40° C./75 RH and refrigeration. Samples are wrapped in aluminum foil to reduce light exposure. After the first night of incubation, samples are briefly visually inspected for any signs of discoloration or precipitate formation.
# [4] = target 30 mg/mL, 5 mM phosphate buffer pH 6.5 plus 6% (v/v) EtOH, 12% (v/v) PG
# [5] = target 38 mg/mL, 5 mM phosphate buffer pH 6.5 plus 8% (v/v) EtOH, 16% (v/v) PG
# [6] = 0% EtOH, 8% PG, 0% PS80, 92% phosphate buffer (5 mM), pH 6.6
# [7] = 0% EtOH, 8% PG, 0.04% PS80, 92% phosphate buffer (5 mM), pH 6.7
# [8] = 4% EtOH, 0% PG, 0.04% PS80, 96% phosphate buffer (5 mM), pH 6.6
# [9] = 4% EtOH, 8% PG, 0% PS80, 88% phosphate buffer (5 mM), pH 6.7
# [10] = 4% EtOH, 8% PG, 0.04% PS80, 88% phosphate buffer (5 mM), pH 6.7
smiles,measurement,setting,value
"Cc1ccc(=O)n(-c2ccccc2)c1 [pirfenidone, 5-methyl-1-phenyl-2-(1H)-pyridone]",Measured Pirfenidone,[1]; [4],30.3 mg/mL
same,mOsmol/kg,[1]; [4],2863 mOsmol/kg
same,pH,[1]; [4],6.90
same,Measured Pirfenidone,[1]; [5],38.9 mg/mL
same,mOsmol/kg,[1]; [5],3750 mOsmol/kg
same,pH,[1]; [5],7.04
same,Observations: dissolution after overnight at 60° C.,[2]; [6],Fully dissolved after overnight at
same,Observations: time stable at 25° C. before re-crystallization,[2]; [6],60 °C Stable at 25 °C for >4 hours
same,"Pirfenidone (mg/mL) >60° C., assay content after stepwise cooling to 25° C.",[2]; [6],54.6 mg/mL
same,"Pirfenidone (mg/mL) >Re-crystal, assay content after stepwise cooling to 25° C. and later re-crystallization",[2]; [6],18.6 mg/mL
same,Observations: dissolution after overnight at 60° C.,[2]; [7],Fully dissolved after overnight at
same,Observations: time stable at 25° C. before re-crystallization,[2]; [7],60 °C Stable at 25 °C for >4 hours
same,"Pirfenidone (mg/mL) >60° C., assay content after stepwise cooling to 25° C.",[2]; [7],52.8 mg/mL
same,"Pirfenidone (mg/mL) >Re-crystal, assay content after stepwise cooling to 25° C. and later re-crystallization",[2]; [7],22.3 mg/mL
same,Observations: dissolution after overnight at 60° C.,[2]; [8],Fully dissolved after overnight at
same,Observations: time stable at 25° C. before re-crystallization,[2]; [8],60 °C Stable at 25 °C for >4 hours
same,"Pirfenidone (mg/mL) >60° C., assay content after stepwise cooling to 25° C.",[2]; [8],50.7 mg/mL
same,"Pirfenidone (mg/mL) >Re-crystal, assay content after stepwise cooling to 25° C. and later re-crystallization",[2]; [8],22.4 mg/mL
same,Observations: dissolution after overnight at 60° C.,[2]; [9],Fully dissolved after overnight at
same,Observations: time stable at 25° C. before re-crystallization,[2]; [9],60 °C Stable at 25 °C for >4 hours
same,"Pirfenidone (mg/mL) >60° C., assay content after stepwise cooling to 25° C.",[2]; [9],50.34 mg/mL
same,"Pirfenidone (mg/mL) >Re-crystal, assay content after stepwise cooling to 25° C. and later re-crystallization",[2]; [9],27.6 mg/mL
same,Observations: dissolution after overnight at 60° C.,[2]; [10],Fully dissolved after overnight at
same,Observations: time stable at 25° C. before re-crystallization,[2]; [10],60 °C Stable at 25 °C for >4 hours
same,"Pirfenidone (mg/mL) >60° C., assay content after stepwise cooling to 25° C.",[2]; [10],51.8 mg/mL
same,"Pirfenidone (mg/mL) >Re-crystal, assay content after stepwise cooling to 25° C. and later re-crystallization",[2]; [10],26.8 mg/mL
same,behaviour on rapid cooling to 25°C,[2]; after dissolution at 60°C,rapid recrystallization
same,full dissolution concentration,"[2]; heated to 60°C, 5 mM sodium phosphate pH 6.5 with ethanol, propylene glycol and/or polysorbate 80",≥ 50 mg/mL
same,concentration staying in solution,"[2]; slow step-wise cooling 60 to 25°C, for several hours before re-crystallization",about 50 mg/mL
same,solubility,"[3]; aqueous co-solvent/surfactant solvent system, pH 4.4, aqueous with cosolvent or surfactant or cyclodextrin, 4% Gly, 0.04% PS80, 96.0% citrate buffer (10 mM), pH 4.4",17.6 mg/mL
same,solubility,"[3]; aqueous co-solvent/surfactant solvent system, pH 4.5, aqueous with cosolvent or surfactant or cyclodextrin, 4% EtOH, 0.04% PS80, 96.0% citrate buffer (10 mM), pH 4.5",21.9 mg/mL
same,solubility,"[3]; aqueous co-solvent/surfactant solvent system, pH 4.5, aqueous with cosolvent or surfactant or cyclodextrin, 4% EtOH, 0.1% CPB, 95.9% citrate buffer (10 mM), pH 4.5",20.4 mg/mL
same,solubility,"[3]; aqueous co-solvent/surfactant solvent system, pH 4.5, aqueous with cosolvent or surfactant or cyclodextrin, 8% PG, 0.04% PS80, 92.0% citrate buffer (10 mM), pH 4.5",23.2 mg/mL
same,solubility,"[3]; aqueous co-solvent/surfactant solvent system, pH 4.5, aqueous with cosolvent or surfactant or cyclodextrin, 8% PG, 0.1% CPB, 91.9% citrate buffer (10 mM), pH 4.5",21 mg/mL
same,solubility,"[3]; aqueous co-solvent/surfactant solvent system, pH 4.6, aqueous with cosolvent or surfactant or cyclodextrin, 8% PG, 0.04% PS80, 92.0% water, pH 4.6",23.4 mg/mL
same,solubility,"[3]; aqueous co-solvent/surfactant solvent system, pH 4.7, aqueous with cosolvent or surfactant or cyclodextrin, 4% EtOH, 0.04% PS80, 96.0% water, pH 4.7",22.5 mg/mL
same,solubility,"[3]; aqueous co-solvent/surfactant solvent system, pH 4.9, aqueous with cosolvent or surfactant or cyclodextrin, 4% EtOH, 0.1% CPB, 95.9% water, pH 4.9",20.2 mg/mL
same,solubility,"[3]; aqueous co-solvent/surfactant solvent system, pH 4.9, aqueous with cosolvent or surfactant or cyclodextrin, 4% Gly, 0.04% PS80, 96.0% water, pH 4.9",20 mg/mL
same,solubility,"[3]; aqueous co-solvent/surfactant solvent system, pH 5, aqueous with cosolvent or surfactant or cyclodextrin, 8% PG, 0.1% CPB, 91.9% water, pH 5.0",22.3 mg/mL
same,solubility,"[3]; aqueous co-solvent/surfactant solvent system, pH 5.8, aqueous with cosolvent or surfactant or cyclodextrin, 4% EtOH, 8% PG, 0.04% PS80, 88.0% water, pH 5.8",28.9 mg/mL
same,solubility,"[3]; aqueous co-solvent/surfactant solvent system, pH 6.1, aqueous with cosolvent or surfactant or cyclodextrin, 4% EtOH, 0.1% CPB, 95.9% water, pH 6.1",23.9 mg/mL
same,solubility,"[3]; aqueous co-solvent/surfactant solvent system, pH 6.2, aqueous with cosolvent or surfactant or cyclodextrin, 0.1% CPB, 99.9% water, pH 6.2",20 mg/mL
same,solubility,"[3]; aqueous co-solvent/surfactant solvent system, pH 6.2, aqueous with cosolvent or surfactant or cyclodextrin, 4% EtOH, 8% PG, 88.0% water, pH 6.2",30 mg/mL
same,solubility,"[3]; aqueous co-solvent/surfactant solvent system, pH 6.2, aqueous with cosolvent or surfactant or cyclodextrin, 8% PG, 0.1% CPB, 91.9% water, pH 6.2",23.4 mg/mL
same,solubility,"[3]; aqueous co-solvent/surfactant solvent system, pH 6.5, aqueous with cosolvent or surfactant or cyclodextrin, 0.04% PS80, 100.0% water, pH 6.5",19.9 mg/mL
same,solubility,"[3]; aqueous co-solvent/surfactant solvent system, pH 6.5, aqueous with cosolvent or surfactant or cyclodextrin, 4% Gly, 0.04% PS80, 96.0% water, pH 6.5",20.2 mg/mL
same,solubility,"[3]; aqueous co-solvent/surfactant solvent system, pH 6.6, aqueous with cosolvent or surfactant or cyclodextrin, 4% EtOH, 8% PG, 0.04% PS80, 88.0% phosphate buffer (5 mM), pH 6.6",29.4 mg/mL
same,solubility,"[3]; aqueous co-solvent/surfactant solvent system, pH 6.6, aqueous with cosolvent or surfactant or cyclodextrin, 4% EtOH, 8% PG, 88.0% phosphate buffer (5 mM), pH 6.6",27.2 mg/mL
same,solubility,"[3]; aqueous co-solvent/surfactant solvent system, pH 6.6, aqueous with cosolvent or surfactant or cyclodextrin, 8% EtOH, 0% PG, 92% phosphate buffer (5 mM), pH 6.6",26.7 mg/mL
same,solubility,"[3]; aqueous co-solvent/surfactant solvent system, pH 6.6, aqueous with cosolvent or surfactant or cyclodextrin, 8% PG, 0.04% PS80, 92.0% water, pH 6.6",23.2 mg/mL
same,solubility,"[3]; aqueous co-solvent/surfactant solvent system, pH 6.7, aqueous with cosolvent or surfactant or cyclodextrin, 4% EtOH, 0.04% PS80, 96.0% water, pH 6.7",24.5 mg/mL
same,solubility,"[3]; aqueous co-solvent/surfactant solvent system, pH 6.7, aqueous with cosolvent or surfactant or cyclodextrin, 8% EtOH, 12% PG, 80% phosphate buffer (5 mM), pH 6.7",37.7 mg/mL
same,solubility,"[3]; aqueous co-solvent/surfactant solvent system, pH 6.8, aqueous with cosolvent or surfactant or cyclodextrin, 0% EtOH, 16% PG, 84% phosphate buffer (5 mM), pH 6.8",29.3 mg/mL
same,solubility,"[3]; aqueous co-solvent/surfactant solvent system, pH 6.8, aqueous with cosolvent or surfactant or cyclodextrin, 2% EtOH, 16% PG, 82% phosphate buffer (5 mM), pH 6.8",31 mg/mL
same,solubility,"[3]; aqueous co-solvent/surfactant solvent system, pH 6.8, aqueous with cosolvent or surfactant or cyclodextrin, 8% EtOH, 4% PG, 88% phosphate buffer (5 mM), pH 6.8",30.4 mg/mL
same,solubility,"[3]; aqueous co-solvent/surfactant solvent system, pH 6.8, aqueous with cosolvent or surfactant or cyclodextrin, 8% EtOH, 8% PG, 84% phosphate buffer (5 mM), pH 6.8",35 mg/mL
same,solubility,"[3]; aqueous co-solvent/surfactant solvent system, pH 6.8, aqueous with cosolvent or surfactant or cyclodextrin, 8% EtOH, 16% PG, 76% phosphate buffer (5 mM), pH 6.8",45.4 mg/mL
same,solubility,"[3]; aqueous co-solvent/surfactant solvent system, pH 6.9, aqueous with cosolvent or surfactant or cyclodextrin, 4% EtOH, 16% PG, 80% phosphate buffer (5 mM), pH 6.9",36.8 mg/mL
same,solubility,"[3]; aqueous co-solvent/surfactant solvent system, pH 6.9, aqueous with cosolvent or surfactant or cyclodextrin, 6% EtOH, 16% PG, 78% phosphate buffer (5 mM), pH 6.9",40.9 mg/mL
same,solubility,"[3]; aqueous co-solvent/surfactant solvent system, pH 7, aqueous with cosolvent or surfactant or cyclodextrin, 6% EtOH, 12% PG, 82.0% phosphate buffer (5 mM), pH 7.0",34.7 mg/mL
same,solubility,"[3]; aqueous co-solvent/surfactant solvent system, pH 7, aqueous with cosolvent or surfactant or cyclodextrin, 8% EtOH, 16% PG, 76.0% phosphate buffer (5 mM), pH 7.0",43.7 mg/mL
same,solubility,"[3]; citrate buffer with co-solvent, pH 4.4, aqueous buffer, 4% Gly, 96.0% citrate buffer (10 mM), pH 4.4",19.8 mg/mL
same,solubility,"[3]; citrate buffer with co-solvent, pH 4.4, aqueous with cosolvent or surfactant or cyclodextrin, 8% PG, 92.0% citrate buffer (10 mM), pH 4.4",23.2 mg/mL
same,solubility,"[3]; citrate buffer with co-solvent, pH 4.5, aqueous buffer, 4% EtOH, 96.0% citrate buffer (10 mM), pH 4.5",22.3 mg/mL
same,solubility,"[3]; citrate buffer with surfactant, pH 4.5, aqueous with cosolvent or surfactant or cyclodextrin, 0.04% PS80, 100.0% citrate buffer (10 mM), pH 4.5",19.1 mg/mL
same,solubility,"[3]; water with co-solvent, pH 4.8, water, 4% Gly, 96.0% water, pH 4.8",20.1 mg/mL
same,solubility,"[3]; water with co-solvent, pH 5, aqueous with cosolvent or surfactant or cyclodextrin, 8% PG, 92.0% water, pH 5.0",24.3 mg/mL
same,solubility,"[3]; water with co-solvent, pH 5, water, 4% EtOH, 96.0% water, pH 5.0",22.8 mg/mL
same,solubility,"[3]; water with co-solvent, pH 6.7, water, 4% Gly, 96.0% water, pH 6.7",20.1 mg/mL
same,solubility,"[3]; water with co-solvent, pH 6.8, aqueous with cosolvent or surfactant or cyclodextrin, 8% PG, 92.0% water, pH 6.8",24.6 mg/mL
same,solubility,"[3]; water with co-solvent, pH 6.9, water, 4% EtOH, 96.0% water, pH 6.9",24.3 mg/mL
same,solubility,"[3]; water with surfactant, pH 4.8, aqueous with cosolvent or surfactant or cyclodextrin, 0.04% PS80, 100.0% water, pH 4.8",8.3 mg/mL
